In article PMC11271627, “Molecular dynamics-guided optimization of BGM0504 enhances dual-target agonism for combating diabetes and obesity” (Scientific Reports, 2024) one finds Kd and Emax data, which are given here for two molecules.

The target in data set [1] is T1, Human Serum Albumin (HSA) protein (Homo sapiens, UniProt P02768).
T1 construct: purified Human ALB (25–609)-His was immobilized
The experiment in a line: biochemical. It is filed as binding. An excerpt:
The buffer used was PBST (PBS with 0.02% Tween 20).

Another data set concerns the target T2, Human GLP-1R (Homo sapiens, UniProt P43220).
T2 construct: expressed in transfected cells; host or cells: HEK293 cells
The experiment in a line: cAMP accumulation assay, GLP-1R. Type of data set: cell-based. The settings on record: HEK293 cells; relative to 10 nM GLP-1(7–37) high control; arithmetic mean ± SEM. Here is the method: (§1) These cells were then resuspended in 5 mL of the assay buffer, and their concentration was determined using a Vi-Cell Counter. […] Samples were subsequently added to the assay plate along with ECHO555. […] A volume of 10 µL of the cell suspension was added to the assay plate, with a density of 1000 cells/well for GLP-1R testing and 2000 cells/well for GIPR testing. The assay plate was then incubated in a 23°C incubator for 30 minutes. A starting concentration of 800 nM was used to prepare the cAMP standard curve, followed by a 4-fold 10-point serial dilution. These serially diluted cAMP standards were added to the assay plate at a volume of 10 µL/well. Subsequently, 10 µL of the cAMP detection solution was added to the assay plate, and the plate was incubated at room temperature for 1 hour, shielded from direct light. […] For data analysis, each data point’s cAMP level (nM) was calculated using the established cAMP standard curve. The percentage activity for each data point was determined using the formula: % Activity = (cAMP level of testing sample - average cAMP level of low control) / ([…] cAMP level of high control - average cAMP level of […] control) × 100%. Additionally, the ‘log(agonist) vs. response – variable slope’ model in GraphPad Prism 5.0 was used to fit the dose-response curve of each sample and calculate the EC50 value.
For orientation: Changes in cAMP serve as a functional read-out for many G protein-coupled receptors.

The next data set has as its target T3, Human GIPR (Homo sapiens, UniProt P48546).
T3 construct: expressed in transfected cells; host or cells: CHO cells
T3 sequence (P48546 22-466): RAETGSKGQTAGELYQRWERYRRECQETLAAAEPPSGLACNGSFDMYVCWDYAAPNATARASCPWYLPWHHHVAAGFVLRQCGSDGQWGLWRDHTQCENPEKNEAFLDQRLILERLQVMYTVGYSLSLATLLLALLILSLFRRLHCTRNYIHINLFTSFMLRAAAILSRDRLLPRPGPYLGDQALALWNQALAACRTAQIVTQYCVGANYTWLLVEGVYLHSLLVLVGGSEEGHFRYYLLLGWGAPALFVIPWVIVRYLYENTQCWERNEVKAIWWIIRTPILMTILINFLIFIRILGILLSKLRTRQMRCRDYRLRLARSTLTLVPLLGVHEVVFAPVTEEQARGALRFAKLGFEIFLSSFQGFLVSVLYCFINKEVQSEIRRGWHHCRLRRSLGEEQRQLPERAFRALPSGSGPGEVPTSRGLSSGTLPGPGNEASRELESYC
Kind of data set: cAMP accumulation assay, GIPR. The settings on record: CHO. Type of data set: cell-based. Here is the method: as §1

T2 sequence (P43220 24-463): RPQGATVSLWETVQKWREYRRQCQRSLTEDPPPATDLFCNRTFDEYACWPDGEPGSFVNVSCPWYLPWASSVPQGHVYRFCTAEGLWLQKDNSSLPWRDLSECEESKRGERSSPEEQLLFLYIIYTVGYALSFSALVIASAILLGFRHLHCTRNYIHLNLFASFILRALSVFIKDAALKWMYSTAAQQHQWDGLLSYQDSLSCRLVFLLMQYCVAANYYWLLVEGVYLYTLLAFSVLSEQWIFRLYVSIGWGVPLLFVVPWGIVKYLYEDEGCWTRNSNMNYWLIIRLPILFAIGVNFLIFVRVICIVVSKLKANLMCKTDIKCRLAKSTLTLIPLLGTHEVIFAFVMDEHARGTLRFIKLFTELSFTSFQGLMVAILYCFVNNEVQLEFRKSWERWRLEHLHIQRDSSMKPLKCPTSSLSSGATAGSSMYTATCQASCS
T1 sequence (P02768 25-609): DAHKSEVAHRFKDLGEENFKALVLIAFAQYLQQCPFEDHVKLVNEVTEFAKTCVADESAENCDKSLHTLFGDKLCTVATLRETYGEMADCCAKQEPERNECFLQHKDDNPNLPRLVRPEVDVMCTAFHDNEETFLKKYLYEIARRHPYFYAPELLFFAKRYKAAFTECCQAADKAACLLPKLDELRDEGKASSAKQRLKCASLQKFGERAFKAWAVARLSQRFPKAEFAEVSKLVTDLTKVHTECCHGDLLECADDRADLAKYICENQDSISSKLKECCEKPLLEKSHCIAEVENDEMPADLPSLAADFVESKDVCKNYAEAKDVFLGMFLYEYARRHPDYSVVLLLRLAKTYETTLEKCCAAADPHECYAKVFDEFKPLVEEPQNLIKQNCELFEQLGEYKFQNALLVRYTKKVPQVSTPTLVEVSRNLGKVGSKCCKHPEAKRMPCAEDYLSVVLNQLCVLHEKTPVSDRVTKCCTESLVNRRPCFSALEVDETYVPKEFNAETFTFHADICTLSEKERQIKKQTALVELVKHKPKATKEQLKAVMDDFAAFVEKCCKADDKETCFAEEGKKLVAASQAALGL

In general, Kd refers to a measure of binding affinity in units of concentration. Higher therefore signals a looser complex. Broadly, the Emax is the maximal effect, on the per cent scale that the assay sets. For `CC[C@H](C)[C@H](NC(=O)[C@H](CC(C)C)NC(=O)[C@H](Cc1c[nH]c2ccccc12)NC(=O)[C@H](CCC(N)=O)NC(=O)[C@@H](NC(=O)[C@H](Cc1ccccc1)NC(=O)[C@H](C)NC(=O)[C@H](CCCCNC(=O)COCCOCCNC(=O)COCCOCCNC(=O)CC[C@H](NC(=O)CCCCCCCCCCCCCCCCCCC(=O)O)C(=O)O)NC(=O)[C@H](CCC(N)=O)NC(=O)[C@H](C)NC(=O)[C@@H](NC(=O)[C@H](CCCCN)NC(=O)[C@H](CC(=O)O)NC(=O)[C@H](CC(C)C)NC(=O)C(C)(C)NC(=O)[C@@H](NC(=O)[C@H](CO)NC(=O)[C@H](Cc1ccc(O)cc1)NC(=O)[C@H](CC(=O)O)NC(=O)[C@H](CO)NC(=O)[C@@H](NC(=O)[C@H](Cc1ccccc1)NC(=O)[C@@H](NC(=O)CNC(=O)[C@H](CCC(=O)O)NC(=O)C(C)(C)NC(=O)[C@@H](N)Cc1ccc(O)cc1)[C@@H](C)O)[C@@H](C)O)[C@@H](C)CC)[C@@H](C)CC)C(C)C)C(=O)N[C@@H](C)C(=O)NCC(=O)NCC(=O)N1CCC[C@H]1C(=O)N[C@@H](CO)C(=O)N[C@@H](CO)C(=O)NCC(=O)N[C@@H](C)C(=O)N1CCC[C@H]1C(=O)N1CCC[C@H]1C(=O)N1CCC[C@H]1C(=O)N[C@@H](CO)C(N)=O` [Tirzepatide, reference compound], the dissociation constant Kd in data set [1] came to 86.3 nM. Besides, the Emax was determined as 84.1 ± 5% at Human GLP-1R and 87.1 ± 7.6% at Human GIPR.

In the case of `CC[C@H](C)[C@H](NC(=O)[C@H](CC(C)C)NC(=O)[C@H](Cc1c[nH]c2ccccc12)NC(=O)[C@H](CCC(N)=O)NC(=O)[C@@H](NC(=O)[C@H](Cc1ccccc1)NC(=O)[C@H](C)NC(=O)[C@H](CCCCN)NC(=O)[C@H](CCC(N)=O)NC(=O)[C@H](C)NC(=O)[C@@H](NC(=O)[C@H](CCCCN)NC(=O)[C@H](CC(=O)O)NC(=O)[C@H](CC(C)C)NC(=O)C(C)(C)NC(=O)[C@@H](NC(=O)[C@H](CO)NC(=O)[C@H](Cc1ccc(O)cc1)NC(=O)[C@H](CC(=O)O)NC(=O)[C@H](CO)NC(=O)[C@@H](NC(=O)[C@H](Cc1ccccc1)NC(=O)[C@@H](NC(=O)CNC(=O)[C@H](CCC(=O)O)NC(=O)C(C)(C)NC(=O)[C@@H](N)Cc1ccc(O)cc1)[C@@H](C)O)[C@@H](C)O)[C@@H](C)CC)[C@@H](C)CC)C(C)C)C(=O)N[C@@H](C)C(=O)NCC(=O)NCC(=O)N1CCC[C@H]1C(=O)N[C@@H](CO)C(=O)N[C@@H](CO)C(=O)NCC(=O)N[C@@H](C)C(=O)N1CCC[C@H]1C(=O)N1CCC[C@H]1C(=O)N1CCC[C@H]1C(=O)N[C@@H](CO)C(N)=O` [Non-acylated Tirzepatide, reference compound], the maximum response (Emax) stood at 96.1 ± 10.8% on Human GLP-1R and 92.2 ± 1.7% at Human GIPR.
